“And” between values parts separate entries of the source, which are not always exact repeats. Equal values may be shown once.
Tests used:
Assay type in all cases: in vivo, mouse
[1] = tested on: colorectal cancer MC38 humanized PD1; test: Example 10.1: MC38 humanized PD1 xenograft model, marketed PD-1 inhibitors and Imiquimod; settings: i.t. every other day x3; PD-1 antibody 10 mg/kg, Imiquimod (LPG2005) 5 mg/kg, combinations as single preparation
Experimental: (§1) Tumor cells were cultured and passaged, cells were collected at the logarithmic phase, and formulated into a concentration of (1.0×10^7) per milliliter of cell suspension with 0.1 ml (with a cell number of 1.0×10^6) being injected into the right flank of the mice, the tumor grew to a diameter of about 5 mm within about 10 days, and the model was successfully established, they were randomly divided into 8 groups.
(§2) Tumor weight inhibitory rate=[1−average tumor weight of experimental group (G2/G3/G4)/average tumor weight of negative control group G1)]×100%.
10.1 Anti-Tumor Effect of Composite Preparation (Single Dosage Form) Consisting of a Marketed PD-1 or PD-L1 Inhibitor and a TLR7/8 Agonist Imiquimod
After a colorectal cancer MC38 humanized PD1 subcutaneous xenograft tumor model was successfully established, random grouping was performed, and each group had 6-8 mice, which were administered once every two days with a total of 3 times.

[2] = tested on: colorectal cancer MC38 humanized CD274 cell; test: Example 8: MC38 humanized CD274 xenograft model, RB0005 and Gardiquimod; settings: i.t. every other day x3; RB0005 1 mg/kg, Gardiquimod 5 mg/kg, combination as single preparation
Experimental: as §1, §2
Anti-Tumor Effect of Pharmaceutical Combination Consisting of PD-L1 Inhibitor RB0005 and Other Types of TLR7/8 Agonists (Gardiquimod)
(§3) After a colorectal cancer MC38 humanized CD274 cell subcutaneously-Xenograft tumor model in mice was successfully established, random grouping was performed, and each group had 6-8 mice, which were administered once every two days with a total of 3 times.

[3] = tested on: colorectal cancer MC38 humanized CD274 cell; test: Example 9: MC38 humanized CD274 xenograft model, RB0005 and Resiquimod; settings: i.t. every other day x3; RB0005 1 mg/kg, Resiquimod 5 mg/kg, combination as single preparation
Experimental: as §1, §2
Anti-Tumor Effect of Pharmaceutical Combination Consisting of PD-L1 Inhibitor RB0005 and Other Types of TLR7/8 Agonists (Resiquimod)
as §3

[4] = tested on: colorectal cancer MC38 humanized CD274 cell; test: Example 10.2: MC38 humanized CD274 xenograft model, Durvalumab or RB0005 and Imiquimod; settings: i.t. every other day x3; Durvalumab or RB0005 1 mg/kg, Imiquimod (LPG2005) 5 mg/kg, combinations as single preparation
Experimental: as §1, §2, §3

[5] = tested on: colorectal carcinoma MC38 (humanized PD-1 model); test: Example 2: humanized PD-1 MC38 subcutaneous xenograft tumor model in mice, RB0004 and Imiquimod; settings: Imiquimod 5 mg/kg i.t., RB0004 10 mg/kg i.p.
Experimental: as §1, §2
The anti-tumor effect of a pharmaceutical combination composed of PD-1 inhibitor RB0004 and a TLR7/TLR8 agonist Imiquimod was tested using a xenograft tumor model, i.e., the inhibitory effect on the growth of subcutaneous xenograft tumor in mice.
After successfully establishing a humanized PD-1 subcutaneous xenograft tumor model of colorectal carcinoma MC38 in mice, they were randomly grouped with 8 mice per group and administered once every two days.

[6] = tested on: colorectal cancer MC38 humanized CD274 cell; test: Example 6: MC38 humanized CD274 xenograft model, LPG2006 single dosage form with different Imiquimod doses; settings: i.t. every other day x3
Experimental: as §1, §2, §3

[7] = tested on: colorectal carcinoma MC38; test: Example 1: MC38 subcutaneous xenograft tumor model in mice, RB0005 and Imiquimod; settings: as of the end; i.t. every other day; RB0005 1 mg/kg, Imiquimod 5 mg/kg, combination in single dosage form; tumor volume >2000 mm^3 counted as death
Experimental: C57/BL6JNifdc mouse, female, body weight of 17-22 g, aged 6-8 weeks, SPF grade, purchased from Beijing Vital River Laboratory Animal Technology Co., Ltd. [Experimental Animal Quality Certificate No.: SCXK (Beijing) 2016-0006].
as §1, §2
The anti-tumor effect of a pharmaceutical combination composed of PD-L1 inhibitor RB0005 and a TLR7/TLR8 agonist Imiquimod (LPG2005) was tested using a xenograft tumor model, i.e., the inhibitory effect on the growth of subcutaneous xenograft tumor in mice.
After successfully establishing a subcutaneous xenograft tumor model of colorectal carcinoma MC38 in mice, it was randomly grouped with 6-8 mice per group. The mice were administered once every two days, with a total of three times followed by observation until 15 days.

[8] = tested on: colorectal cancer MC38 humanized CD274 cell; test: Example 7: MC38 humanized CD274 xenograft model, intraperitoneal vs intratumoral administration; settings: every other day x3
Experimental: as §1, §2, §3

[9] = tested on: colorectal cancer MC38 humanized CD274 cell; test: Example 12: MC38 humanized CD274 xenograft model, sequential administration of Imiquimod and RB0005; settings: i.t.; RB0005 1 mg/kg, Imiquimod 5 mg/kg; G4 sequential: agonist first, PD-L1 inhibitor after 48 h, total of 3 times
Experimental: as §1, §2

colorectal cancer MC38 = test: Example 3: MC38 xenograft tumor model in mice, RB0005 and different doses of Imiquimod; settings: i.t. every other day x3; RB0005 1 mg/kg (G2), Imiquimod 5 mg/kg (G5), both in single dosage form (G8)
Experimental: as §1, §2
A colorectal cancer MC38 Xenograft tumor model in mice was used to test an anti-tumor effect of a pharmaceutical combination consisting of a PD-L1 inhibitor RB0005 and different doses of TLR7/TLR8 agonists Imiquimod, that is, the inhibitory effect on the growth of subcutaneous xenograft tumor in mice.
After a subcutaneous xenograft tumor model in mice was successfully established, random grouping was performed, and each group had 8 mice, which were administered once every two days.

[10] = tested on: colorectal cancer CT26 humanized CD274 cell; test: Example 11: CT26 humanized CD274 xenograft model, LPG2006; settings: CT26.sgcd274 CD274, i.t. every other day x3, Imiquimod 5 mg/kg
Experimental: as §1, §2
Combination LPG2006 (Single Dosage Form) Consisting of PD-L1 Inhibitor RB0005 and Imiquimod, CT26 Tumor Model
After a colorectal cancer CT26 humanized CD274 cell subcutaneous xenograft tumor model in mice was successfully established, random grouping was performed, and each group had 6-8 mice, which were administered once every two days with a total of 3 times.

[11] = Imiquimod 6.32 mg/kg (G4), with RB0005 1 mg/kg in single dosage form (G7)
[12] = Imiquimod 20 mg/kg (G5), with RB0005 1 mg/kg in single dosage form (G8)
[13] = RB0005 1 mg/kg (G2), Imiquimod 2 mg/kg (G3), both in single dosage form (G6)
[14] = intratumoral injection, RB0005 1 mg/kg (G4), Imiquimod 5 mg/kg (G6), LPG2006 single preparation (G8)

## Sintilimab: marketed PD-1 inhibitor monoclonal antibody
[1]
  IRTW (tumor weight inhibition rate): 3.9%
  Tumor Weight: 1.47 g

## Toripalimab: marketed PD-1 inhibitor monoclonal antibody
[1]
  IRTW (tumor weight inhibition rate): 49.7%
  Tumor Weight: 0.92 g

## CCNCc1nc2c(N)nc3ccccc3c2n1CC(C)(C)O [Gardiquimod]
[2]
  IRTW (tumor weight inhibition rate): 42% and 41.6%
  Tumor Weight: 1.81 g

## CCOCc1nc2c(N)nc3ccccc3c2n1CC(C)(C)O [Resiquimod]
[3]
  IRTW (tumor weight inhibition rate): 40% and 40.2%
  Tumor Weight: 1.81 g

## Durvalumab: marketed anti PD-L1 monoclonal antibody
[4]
  IRTW (tumor weight inhibition rate): 21% and 20.9%
  Tumor Weight: 1.13 g

## CC(C)Cn1cnc2c(N)nc3ccccc3c21 [Imiquimod]
[1]
  Tumor Weight: 1.93 g
[4]
  IRTW (tumor weight inhibition rate): 48.8%
  Tumor Weight: 0.73 g
[5]; every other day x3
  IRTW (tumor weight inhibition rate): 42.71%
  Tumor Weight: 3.62 g
[5]; as of the end, every other day x3, combination in separate dosage forms
  survival rate in mice: 40%
[5]; vs solvent control
  growth of the tumor volume: slower than that in the solvent control group
[6]; [11]
  IRTW (tumor weight inhibition rate): 58.5%
  Tumor Weight: 2.0 g
[6]; [12]
  IRTW (tumor weight inhibition rate): 47.4%
  Tumor Weight: 1.8 g
[6]; [13]
  IRTW (tumor weight inhibition rate): 27.5%
  Tumor Weight: 2.5 g
[7]
  survival rate in mice: 50%
[8]; intraperitoneal injection, RB0005 1 mg/kg (G3), Imiquimod 5 mg/kg (G5), LPG2006 single preparation (G7)
  Tumor Weight: 3.74 g
[8]; [14]
  IRTW (tumor weight inhibition rate): 23.5%
  Tumor Weight: 2.6 g
[9]
  IRTW (tumor weight inhibition rate): 34.8%
  Tumor Weight: 1.30 g
Colorectal cancer MC38
  IRTW (tumor weight inhibition rate): 23.35%
  Tumor Weight: 2.70 g
[10]; LPG2006 (RB0005 1 mg/kg + LPG2005 5 mg/kg)
  IRTW (tumor weight inhibition rate): 42%
[10]; RB0005 1 mg/kg, LPG2006 single preparation
  Tumor Weight: 1.05 g

B1: Camrelizumab: marketed PD-1 inhibitor monoclonal antibody (antibody, chains of the INN, looked up, V domains shown)
VH: EVQLVESGGGLVQPGGSLRLSCAASGFTFSSYMMSWVRQAPGKGLEWVATISGGGANTYYPDSVKGRFTISRDNAKNSLYLQMNSLRAEDTAVYYCARQLYYFDYWGQGTTVTVSS
VL: DIQMTQSPSSLSASVGDRVTITCLASQTIGTWLTWYQQKPGKAPKLLIYTATSLADGVPSRFSGSGSGTDFTLTISSLQPEDFATYYCQQVYSIPWTFGGGTKVEIK
[1]
  IRTW (tumor weight inhibition rate): 19.6%
  Tumor Weight: 1.23 g

B2: Tislelizumab: marketed PD-1 inhibitor monoclonal antibody (antibody, chains of the INN, looked up)
heavy: QVQLQESGPGLVKPSETLSLTCTVSGFSLTSYGVHWIRQPPGKGLEWIGVIYADGSTNYNPSLKSRVTISKDTSKNQVSLKLSSVTAADTAVYYCARAYGNYWYIDVWGQGTTVTVSSASTKGPSVFPLAPCSRSTSESTAALGCLVKDYFPEPVTVSWNSGALTSGVHTFPAVLQSSGLYSLSSVVTVPSSSLGTKTYTCNVDHKPSNTKVDKRVESKYGPPCPPCPAPPVAGGPSVFLFPPKPKDTLMISRTPEVTCVVVAVSQEDPEVQFNWYVDGVEVHNAKTKPREEQFNSTYRVVSVLTVVHQDWLNGKEYKCKVSNKGLPSSIEKTISKAKGQPREPQVYTLPPSQEEMTKNQVSLTCLVKGFYPSDIAVEWESNGQPENNYKTTPPVLDSDGSFFLYSKLTVDKSRWQEGNVFSCSVMHEALHNHYTQKSLSLSLG
light: DIVMTQSPDSLAVSLGERATINCKSSESVSNDVAWYQQKPGQPPKLLINYAFHRFTGVPDRFSGSGYGTDFTLTISSLQAEDVAVYYCHQAYSSPYTFGQGTKLEIKRTVAAPSVFIFPPSDEQLKSGTASVVCLLNNFYPREAKVQWKVDNALQSGNSQESVTEQDSKDSTYSLSSTLTLSKADYEKHKVYACEVTHQGLSSPVTKSFNRGEC
[1]
  IRTW (tumor weight inhibition rate): 61.4%
  Tumor Weight: 0.59 g

— patent US20250270316A1, “PHARMACEUTICAL COMBINATION AND USE THEREOF” (TIANJIN LIPOGEN TECHNOLOGY CO., LTD, priority 2021, published 2025)
